Entries after “also recorded” stand apart in the source; their conditions may differ.
Assays:
NCI-H1650 = experiment: Drug-sensitivity screen of 40 cancer cell lines, NCI-H1650; assay type: cell-based, human; conditions: gefitinib 100 nM to 10 μM, 3 days, DNA staining; del E746-A750 EGFR
Procedure: (§1) Cells were cultured and analyzed in triplicate within microtiter plates. Cell numbers were quantitated by DNA staining, 3 days after addition of various concentrations of drugs and expressed as a fraction of matched untreated cultures. For each drug concentration, cell lines with relative drug sensitivity (<50% of untreated control growth) are shown in darkest staining, intermediate sensitivity (50-75%) in […], and drug insensitivity (>75%) in intermediate shading.
(§2) Cellular Proliferation and Viability Assays. […] For quantitation of cellular proliferation, cells were fixed at appropriate time points in 4% paraformaldehyde, and all plates were stained simultaneously by using the fluorescent nucleic acid stain SYTO60 (Molecular Probes) at 1:8,000 dilution in PBS. Quantitation was done by measuring the […] at 700 nm by using the Odyssey Imaging System (LI-COR, Lincoln, Nebr.). The relative cell number was obtained by normalizing treated samples to matched untreated specimens. For quantitation of cell viability, cultures were stained after 4 days by using the MTT assay. Briefly, 10 μl of 5 mg/ml MTT (Thiazolyl blue) solution was added to each well and incubated for 2 h at 37° C. […] The results were quantitated spectrophotometrically by using a test wavelength of 570 nm and a reference wavelength of 630 nm.

[1] = tested on: NCI-H1975 NSCLC cell line; experiment: Drug-sensitivity screen of 40 cancer cell lines, NCI-H1975; assay type: cell-based, human; conditions: gefitinib; L858R and T790M EGFR
Procedure: as §1, §2

Amp− cells [2] = experiment: MTT viability, gastric cancer cell lines without MET amplification; assay type: cell-based, human; conditions: 12 of 12 Amp− cell lines, 96 h
Amp− cells [3] = experiment: Growth curve (SYTO60), Amp− cells; assay type: cell-based, human; conditions: 1 μM, up to 6 days
Amp+ cells [4] = experiment: Apoptosis induction (cleaved caspase-3 staining, PARP cleavage), Amp+ cells; assay type: cell-based, human
Procedure: (§3) Cells are costained with DAPI to show nuclei.
Cells were plated on coverslips in 12-well dishes and grown to approximately 75% confluency in 10% serum. […] After 72 h the cells were fixed with 4% paraformaldehyde for 20 minutes. Permeabilization with 1% NP40 for 5 minutes was followed by blocking with 3% BSA for 30 minutes. The coverslips were then incubated overnight at 4° C. with cleaved caspase-3 antibody at 1:200 dilution. The next day, the coverslips were washed 3 times with PBS and incubated with a secondary antibody (goat anti-rabbit FITC-conjugated) for 1 h at 1:250 dilution. Following 5 washes with PBS, coverslips were mounted in Vectashield mounting medium containing DAPI (Vector Laboratories; Burlingame, Calif.).
Apoptosis Induction Assay. […] After 72 h, cells were fixed with 4% paraformaldehyde for 20 min, permeabilized by using 1% Nonidet P-40 for 5 min, and blocked with 3% BSA for 30 min. The coverslips were then incubated overnight at 4° C. with cleaved caspase-3 antibody at 1:200 dilution. The next day, the coverslips were washed three times with PBS and incubated with a secondary antibody (goat anti-rabbit FITC-conjugated) for 1 h at 1:250 dilution. After five washes with PBS, coverslips were mounted in Vectashield mounting medium containing DAPI (Vector Laboratories), and staining was visualized by fluorescent microscopy.

[5] = tested on: gastric cancer cell line MKN45; experiment: Drug-sensitivity screen of 40 cancer cell lines, MKN45; assay type: cell-based, human; conditions: 3 days, DNA staining; MET-amplified line
Procedure: as §1, §2

MET [6] = experiment: Immunoblot of constitutive MET autophosphorylation in Amp+ cells; assay type: cell-based, human; conditions: 50 nM, 3 h
[7] = tested on: ERK1/2, AKT, STAT3, or FAK; experiment: Immunoblot of baseline phosphorylation of downstream effectors in Amp− cells; assay type: cell-based, human; conditions: 3 h
Procedure: (§4) FIG. 3: Constitutive activation of MET and activation of downstream signaling pathways in Amp^+ cells. (FIG. 3A) MET is constitutively activated in the Amp^+ cells. […] (FIG. 3B) Effect of HGF on MET activation in Amp^+ and Amp^− cells (representative immunoblots). Cells were serum-starved for 24 h and treated with 40 ng/ml HGF for 10 minutes. Phosphorylation of MET (Y1234/1235) is unaltered in Amp^+ cells treated with HGF, but it is induced by HGF in Amp^− cells (total MET control).
as §3
(§5) Cells were either directly lysated in 2× sample buffer or in RIPA buffer (150 mM NaCl, 50 mM Tris pH 8.0, 1% NP40, 0.5% DOC, 0.1% SDS, 1 mM EDTA, 10 mM NaF, 1 mM Na-orthovanadate, 1× protease inhibitor cocktail (Roche; Indianapolis, Ind.)). Cell lysates were sonicated for 10 sec and cleared by centrifugation at 14,000 rpm for 10 min at 4° C. Cleared lysates were boiled in sample buffer and loaded onto 10% SDS-PAGE gel. For immunoblotting analysis, proteins were transferred onto Immobilon PVDF membrane (Millipore; Bedford, Mass.) and visualized with Western Lightning Plus chemiluminescence kit (Perkin Elmer; Boston, Mass.).

[8] = tested on: ERK1/2, AKT, STAT3, and FAK; experiment: Immunoblot of baseline phosphorylation of downstream effectors in Amp+ cells; assay type: cell-based, human; conditions: 50 nM, 3 h
Procedure: as §4, §3, §5

Amp+ cells [9] = experiment: MTT viability, gastric cancer cell lines with MET amplification; assay type: cell-based, human; conditions: 5 of 5 Amp+ cell lines, 96 h
MET [10] = conditions: Morotti et al. 2002; cited from earlier work
MET [11] = conditions: Morotti et al. 2002; cited from earlier work; remark: listed apart in the source
[12] = tested on: GTL-16 gastric carcinoma cells; conditions: GTL-16 cells; cited from earlier work

SMILES: COc1cc2ncnc(Nc3ccc(F)c(Cl)c3)c2cc1OCCCN1CCOCC1 [gefitinib]
- Extreme sensitivity (concentration) (NCI-H1650): 100 nM
- sensitivity in the assay [1]: relatively resistant

SMILES: Cc1[nH]c(/C=C2\C(=O)Nc3ccc(S(=O)(=O)Cc4c(Cl)cccc4Cl)cc32)c(C)c1C(=O)N1CCC[C@@H]1CN1CCCC1 [PHA-665752, (3Z)-5-[(2,6-dichlorobenzyl)sulfonyl]-3-[(3,5-dimethyl-4-{[(2R)-2-(pyrrolidin-1-ylmethyl)pyrrolidin-1-yl]carbonyl}-1H-pyrrol-2-yl)methylene]-1,3-dihydro-2H-indol-2-one]
- effect on number of viable cells (Amp− cells [2]): resistant; also recorded: no effect
- effect on proliferation rate (Amp− cells [3]): unaffected
- induction of apoptosis (Amp+ cells [4]; Amp+ cells, cleaved caspase-3 (1 μM, 72 h), PARP cleavage (500 nM, 72 h)): apoptosis
- course of cell death (Amp+ cells [4]; MKN45 cells): more delayed but prolonged cell death
- PARP-cleavage signal (Amp+ cells [4]; SNU-5 cells, 72 h): prominent PARP-cleavage signal
- Extreme sensitivity (concentration) [5]: 100 nM
- constitutive MET autophosphorylation (MET [6]): effectively suppressed
- baseline phosphorylation of ERK1/2, AKT, STAT3, FAK [7]: no effect
- baseline phosphorylation of downstream effectors ERK1/2, AKT, STAT3, FAK [8]: effectively abrogated
- effect on number of viable cells (Amp+ cells [9]): dramatic decrease in the number of viable cells; also recorded: dramatic reduction in cell numbers

SMILES: COC(=O)[C@@]1(O)C[C@H]2O[C@]1(C)n1c3ccccc3c3c4c(c5c6ccccc6n2c5c31)C(=O)NC4 [K252a]
- inhibition of Met mediated signals (MET [10]): inhibit Met mediated signals at nanomolar concentrations
- Met autophosphorylation (MET [11]): inhibits Met autophosphorylation
- Met-driven proliferation [12]: reduces Met-driven proliferation

Reference: patent publication US8652786B2, “Method for predicting responsiveness to drugs” (The General Hospital Corporation, priority 2005, dated 2014)
